{"source": "patent US8349553B2", "about": "“Jasmonate based assays for identifying compounds that selectively inhibit mitochondrial bound hexokinases” (Ramot at Tel Aviv University Ltd., priority 2007, dated 2013)", "key": {"B16 melanoma": {"test_system": "B16 melanoma", "test": "Cellular ATP levels (CellTiter-Glo), B16", "type": "cell-based, murine", "details": "60 minutes of exposure, various concentrations", "description": "(§1) The CellTiter-Glo™ Luminescent Cell Viability Assay (Promega, Madison, Wis., U.S.A.) was employed (Fingrut, 2005). Upon completion of a given experiment, plates were equilibrated to room temperature. CellTiter-Glo™ reagent containing luciferin and luciferase was added to each well and the plates were mixed on an orbital shaker for 2 minutes to induce cell lysis. In the presence of ATP, Mg^2+ and molecular oxygen, mono-oxidation of luciferin is catalyzed by luciferase, generating a luminescence signal. Cells were then incubated for 10 minutes at room temperature to stabilize the luminescence signal. Luminescence was recorded using Kodak digital science—Image station 440 CD. Luminescence is directly proportional to ATP concentration. ATP depletion (% of control) was calculated in the following way: {(luminescence of control cells−luminescence of drug-treated cells)/luminescence of control cells}×100. In order to test the correlation between cellular ATP levels and the release of hexokinase from mitochondrial fraction different cancer cells, namely Molt-4 cells, BCL-1 leukemic cells and B16 melanoma tumors were exposed to various methyl jasmonate concentrations. […] CT26 and Molt-4 cells were then seeded in 24 well plates. CT26 cells were allowed to adhere over night. Cells were exposed to methyl jasmonate (MJ; 3 mM) for 1 hour. Trypan blue exclusion test was performed and cells were counted."}, "Molt-4 cells": {"test_system": "Molt-4 cells", "test": "Trypan blue exclusion test, Molt-4", "type": "cell-based, human", "details": "3 mM, 1 hour", "description": "Cell death was determined by trypan blue exclusion. […] Alternatively, cytotoxicity was determined using hemacolor staining. […] In order to test the correlation between cellular ATP levels and the release of hexokinase from mitochondrial fraction different cancer cells, namely Molt-4 cells, BCL-1 leukemic cells and B16 melanoma tumors were exposed to various methyl jasmonate concentrations. […] CT26 and Molt-4 cells were then seeded in 24 well plates. CT26 cells were allowed to adhere over night. Cells were exposed to methyl jasmonate (MJ; 3 mM) for 1 hour. Trypan blue exclusion test was performed and cells were counted."}, "BCL-1 leukemic cells": {"test_system": "BCL-1 leukemic cells", "test": "Cellular ATP levels (CellTiter-Glo), BCL-1", "type": "cell-based, murine", "details": "60 minutes of exposure, various concentrations", "description": "as §1"}, "[1]": {"test_system": "HKI and HKII (mitochondrial fraction of B16 tumors)", "test": "Western blot of supernatants with anti-HKI and anti-HKII, B16 tumor mitochondrial fraction", "type": "biochemical, murine", "details": "B16 tumor mitochondrial fraction supernatant", "description": "(§2) For analysis of hexokinase levels, the experiments were performed similarly to hexokinase detachment assay described above, and unbound hexokinase in the supernatant fraction was extracted as described in Fingrut (2005). Samples were separated by sodium dodecylsulfate-polyacrylamide gel (7%) electrophoresis followed by immunoblotting. The blots were probed with specific anti-HKI or anti-HKII antibodies (1:300, Santa-Cruz Biotechnology, CA, USA). Hexokinase-antibody complexes were stained with HRP-conjugated antibody (1:10,000, Santa-Cruz Biotechnology, CA, USA). Enhanced chemiluminescence (ECL) reagent (Biological Industries, Beit Haemek, Israel) was added, and the blots were exposed to ECL film (Eastman Kodak, Rochester, N.Y., USA). Hexokinase detachment from mitochondrial fraction is not limited to CT-26 colon carcinoma. Mitochondrial fractions isolated from different cancer cells, namely Molt-4 cells, BCL-1 leukemic cells and B16 melanoma tumors were incubated for 30 minutes at 37° C., and the activity of unbound hexokinase was measured and compared to the activity of spontaneously (control) detached hexokinase. […] The supernatant of the experiments were separated on SDS-PAGE and probed with anti-HKI and anti-HKII antibodies."}, "[2]": {"test_system": "HKI and HKII (mitochondrial fraction of BCL-1)", "test": "Western blot of supernatants with anti-HKI and anti-HKII, BCL-1 mitochondrial fraction", "type": "biochemical, murine", "details": "BCL-1 mitochondrial fraction supernatant", "description": "as §2"}, "[3]": {"test": "Solubility in SPR running buffer", "type": "physicochemical", "details": "PBS X 1 with 0.005% Tween and 5% DMSO", "description": "SPR using ProteOn-EP5 (Bio-Rad, Hercules, Calif., USA) system has been applied to study the direct interaction of methyl jasmonate with hexokinase. This system allowed measuring ligand-analyte interactions in a 6×6 format in real time. Purified rat brain HKI and rabbit immunoglobulin G (Rb IgG; ligands) were diluted in 10 mM Na acetate pH 4 and 4.5, respectively, and coupled to a GLM sensor surface activated with 37.5 mg/ml N-Ethyl-N′-(3′ dimethylaminopropyl) carbodiimide hydrochloride and 7.5 mg/ml N-hydroxysuccinimide. HKI and IgG were added to saturate the chip at 100 μg/ml. Remaining reactive groups on the chip were then inactivated with 1 M ethanolamine pH 8.5. […] Methyl jasmonate and jasmonic acid (analytes) were diluted in running buffer (PBS X 1 with 0.005% Tween and 5% DMSO) and injected onto the sensor chip at varying concentrations. All experiments were performed at flow rate of 50 μl/min, at 25° C."}}}
{"smiles": "CC/C=C\\CC1C(=O)CCC1CC(=O)OC", "note": "(stereo not shown) [methyl jasmonate]", "values": [{"measurement": "cellular ATP level", "setting": "B16 melanoma", "value": "significant and dose-dependent decrease of cellular ATP"}, {"measurement": "sensitivity of Molt-4 relative to CT26 cells", "setting": "Molt-4 cells", "value": "showed increased sensitivity with respect to CT26 tumor cells"}, {"measurement": "live/dead cells by Trypan blue exclusion", "setting": "Molt-4 cells; Molt-4", "value": "still alive after 60 minutes"}, {"measurement": "cellular ATP level", "setting": "BCL-1 leukemic cells", "value": "significant and dose-dependent decrease of cellular ATP"}, {"measurement": "detachment of hexokinase confirmed by immunoblot (anti-HKI, anti-HKII)", "setting": "[1]", "value": "detachment of hexokinase from mitochondrial fraction of the various cancer cells was further confirmed"}, {"measurement": "detachment of hexokinase confirmed by immunoblot (anti-HKI, anti-HKII)", "setting": "[2]", "value": "detachment of hexokinase from mitochondrial fraction of the various cancer cells was further confirmed"}, {"measurement": "solubility in the running buffer", "setting": "[3]", "value": "limited solubility"}]}
